{
  "source": "paper PMC11899342",
  "about": "“Novel Triazeneindole Antibiotics: Synthesis and Hit-to-Lead Optimization” (International Journal of Molecular Sciences, 2025)",
  "key": {"[1]": {"assay": "Solubility in water by HPLC", "assay_type": "physicochemical", "settings": "water, kinetic from dmso stock", "method_in_brief": "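Compound (1.0 mg in 10 μL DMSO) mixed with 1.0 mL water, shaken 5 min and centrifuged; supernatant analysed by C18 HPLC. Water concentration derived from peak area relative to an acetonitrile standard at 1.0 mg/mL.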"}, "MRSA": {"tested_on": "MRSA", "assay": "Selectivity index (average IC50 on eukaryotic cells / average MIC on MRSA)", "assay_type": "cell-based, Staphylococcus aureus", "settings": "average IC50 on eukaryotic cells divided by average MIC on MRSA", "procedure": "The selectivity index was calculated for each compound as the average IC50 on eukaryotic cells divided by the average MIC on MRSA (Table 2)."}, "MRSA clinical isolates": {"tested_on": "MRSA clinical isolates", "assay": "MIC by broth microdilution against multidrug-resistant MRSA clinical isolates", "assay_type": "cell-based, Staphylococcus aureus", "settings": "for MIC: Staphylococcus aureus, MRSA, read-out: MIC", "method_in_brief": "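Multidrug-resistant clinical MRSA isolates, 1 × 10^6 CFU/mL suspension in Mueller Hinton broth, broth microdilution with compounds at final 1, 0.5, 0.25 and 0.125 mg/L. Incubated 18 h at 37 °C; MIC taken as lowest concentration with no visible growth, triplicate.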"}, "[2]": {"tested_on": "HepG2 human liver carcinoma cells", "assay": "MTT cytotoxicity (hepatotoxicity) on HepG2", "assay_type": "cell-based", "settings": "Homo sapiens, HepG2, 24 h", "procedure": "(§1) The primary screening of 22 substances was performed on human embryonic fibroblasts (HEFs). […] The HepG2 cell line was obtained from the American Type Culture Collection (ATCC cat. # HB-8065). The primary HEF cells (normal human embryonic fibroblasts) were derived from human embryonic stem cells. The cells were cultured in DMEM/F12 (1:1) medium containing 10% fetal bovine serum (Invitrogen, Carlsbad, CA, USA) at 37 °C and 5% CO2, according to standard mammalian tissue culture protocols and sterile technique. […] The incubation time with the substance was 24 h for all substances and cell lines. Cell detachment by trypsin, centrifugation, and counting in a hemocytometer were performed 16 h before the addition of the substance. For correct counting of the HepG2 cells, the cell suspension was passed through a syringe needle to get rid of cell aggregates. The cells were placed in the wells of a 96-well plate. The number of cells was selected according to the properties of the cell line and the final optical density in the experiment. Fibroblasts and hepatocytes were used in the amount of 10 thousand cells per well in 100 μL of DMEM/F12 medium supplemented with 10% fetal bovine serum. The substances were added to 100 µL of medium in the wells so that the final concentrations were 50, 25, 12.5, 6.25, 3.125, and 1.62 mg/L. The final well volume was 200 µL. The medium containing fetal bovine serum, without added substances, was used as a negative control. After 24 h, excessive amounts of medium were discarded. A total of 30 µL of MTT solution (5 mg/mL in PBS) was added to each well. After the precipitation of formazan crystals (3 h incubation), they were dissolved using 100 μL of dimethyl sulfoxide. The optical density (OD) was measured at 570 nm using a microplate reader (Eppendorf). For every condition, the cell viabilities were assessed in at least three independent experiments for every cell culture. Cell survival was calculated using the following formula:(OD of treated cells − OD blank)/(OD of control cells − OD blank) × 100%, where OD blank represents the OD values in wells without cells but with the addition of the MTT and DMSO solutions. The results were presented in the form of cytotoxicity curves, and the graphs were also plotted in a Microsoft Excel program; the calculation of the IC50 half-maximal inhibition concentration values was performed in a GraphPad Prism 6.0 (GraphPad Software Inc., San Diego, CA, USA) program, based on the equations of the cytotoxicity curves."}, "[3]": {"tested_on": "human embryonic fibroblasts (HEFs)", "assay": "MTT cytotoxicity on human embryonic fibroblasts", "assay_type": "cell-based", "settings": "Homo sapiens, Fibroblast, 24 h, ND = non-toxic in tested concentrations (up to 50 mg/L)", "procedure": "as §1"}},
  "note": "Where two headings read alike, the source gives them in different places.",
  "data": [
    {"smiles": "CCOC(=O)c1[nH]c2ccccc2c1/N=N/N1CCN(C)CC1", "note": "[BX-SI001, Ethyl (E)-3-((4-methylpiperazin-1-yl)diazenyl)-1H-indole-2-carboxylate]", "values": [
      {"measurement": "solubility at 5 min", "setting": "[1]; read-out: Solubility in water, mass concentration", "result": 90.5, "unit": "µg/mL"},
      {"measurement": "solubility at 5 min", "setting": "[1]; read-out: Solubility in water, molar concentration", "result": 280, "unit": "µM"},
      {"measurement": "Selectivity Index", "setting": "MRSA", "result": 19},
      {"measurement": "MIC Range Against 8 MRSA Strains", "setting": "MRSA clinical isolates; 8 multidrug-resistant MRSA clinical isolates, tested 0.125-1 mg/L", "result": 1, "unit": "µg/mL"},
      {"measurement": "MIC", "setting": "MRSA clinical isolates; Table S4, MRSA strain 1", "result": 0.5, "unit": "µg/mL"},
      {"measurement": "MIC", "setting": "MRSA clinical isolates; Table S4, MRSA strain 2", "result": 1, "unit": "µg/mL"},
      {"measurement": "MIC", "setting": "MRSA clinical isolates; Table S4, MRSA strain 3", "result": 1, "unit": "µg/mL"},
      {"measurement": "MIC", "setting": "MRSA clinical isolates; Table S4, MRSA strain 4", "result": 1, "unit": "µg/mL"},
      {"measurement": "MIC", "setting": "MRSA clinical isolates; Table S4, MRSA strain 5", "result": 0.5, "unit": "µg/mL"},
      {"measurement": "MIC", "setting": "MRSA clinical isolates; Table S4, MRSA strain 6", "result": 0.5, "unit": "µg/mL"},
      {"measurement": "MIC", "setting": "MRSA clinical isolates; Table S4, MRSA strain 7", "result": 1, "unit": "µg/mL"},
      {"measurement": "MIC", "setting": "MRSA clinical isolates; Table S4, MRSA strain 8", "result": 1, "unit": "µg/mL"},
      {"measurement": "MIC", "setting": "MRSA clinical isolates; Table S4, MRSA strain 9", "result": 1, "unit": "µg/mL"},
      {"measurement": "MIC", "setting": "MRSA clinical isolates; Table S4, MRSA strain 10", "result": 1, "unit": "µg/mL"},
      {"measurement": "MIC", "setting": "MRSA clinical isolates; Table S4, MRSA strain 12", "result": 1, "unit": "µg/mL"},
      {"measurement": "MIC", "setting": "MRSA clinical isolates; Table S4, MRSA strain 13", "result": 1, "unit": "µg/mL"},
      {"measurement": "MIC", "setting": "MRSA clinical isolates; Table S4, MRSA strain 14", "result": 1, "unit": "µg/mL"},
      {"measurement": "MIC", "setting": "MRSA clinical isolates; Table S4, MRSA strain 15", "result": 1, "unit": "µg/mL"},
      {"measurement": "MIC", "setting": "MRSA clinical isolates; Table S4, MRSA strain 16", "result": 0.5, "unit": "µg/mL"},
      {"measurement": "MIC", "setting": "MRSA clinical isolates; Table S4, MRSA strain 17", "result": 1, "unit": "µg/mL"},
      {"measurement": "MIC", "setting": "MRSA clinical isolates; Table S4, MRSA strain 18", "result": 1, "unit": "µg/mL"},
      {"measurement": "MIC", "setting": "MRSA clinical isolates; Table S4, MRSA strain 21", "result": 1, "unit": "µg/mL"},
      {"measurement": "MIC", "setting": "MRSA clinical isolates; Table S4, MRSA strain 23", "result": 1, "unit": "µg/mL"},
      {"measurement": "MIC", "setting": "MRSA clinical isolates; Table S4, MRSA strain 24", "result": 1, "unit": "µg/mL"},
      {"measurement": "MIC", "setting": "MRSA clinical isolates; Table S4, MRSA strain 25", "result": 1, "unit": "µg/mL"},
      {"measurement": "MIC", "setting": "MRSA clinical isolates; Table S4, MRSA strain 26", "result": 0.5, "unit": "µg/mL"},
      {"measurement": "MIC", "setting": "MRSA clinical isolates; Table S4, MRSA strain 27", "result": 1, "unit": "µg/mL"},
      {"measurement": "MIC", "setting": "MRSA clinical isolates; Table S4, MRSA strain 28", "result": 1, "unit": "µg/mL"},
      {"measurement": "MIC", "setting": "MRSA clinical isolates; Table S4, MRSA strain 29", "result": 1, "unit": "µg/mL"},
      {"measurement": "MIC", "setting": "MRSA clinical isolates; Table S4, MRSA strain 30", "result": 1, "unit": "µg/mL"},
      {"measurement": "MIC", "setting": "MRSA clinical isolates; Table S4, MRSA strain 31", "result": 1, "unit": "µg/mL"},
      {"measurement": "MIC", "setting": "MRSA clinical isolates; Table S4, MRSA strain 34", "result": 1, "unit": "µg/mL"},
      {"measurement": "MIC", "setting": "MRSA clinical isolates; Table S4, MRSA strain 35", "result": 1, "unit": "µg/mL"},
      {"measurement": "MIC", "setting": "MRSA clinical isolates; Table S4, MRSA strain 36", "result": 1, "unit": "µg/mL"},
      {"measurement": "MIC", "setting": "MRSA clinical isolates; Table S4, MRSA strain 40", "result": 1, "unit": "µg/mL"},
      {"measurement": "MIC", "setting": "MRSA clinical isolates; Table S4, MRSA strain 41", "result": 1, "unit": "µg/mL"},
      {"measurement": "MIC", "setting": "MRSA clinical isolates; Table S4, MRSA strain 42", "result": 1, "unit": "µg/mL"},
      {"measurement": "MIC", "setting": "MRSA clinical isolates; Table S4, MRSA strain 43", "result": 1, "unit": "µg/mL"},
      {"measurement": "MIC", "setting": "MRSA clinical isolates; Table S4, MRSA strain 44", "result": 1, "unit": "µg/mL"},
      {"measurement": "MIC", "setting": "MRSA clinical isolates; Table S4, MRSA strain 45", "result": 1, "unit": "µg/mL"},
      {"measurement": "MIC", "setting": "MRSA clinical isolates; Table S4, MRSA strain 46", "result": 1, "unit": "µg/mL"},
      {"measurement": "MIC", "setting": "MRSA clinical isolates; Table S4, MRSA strain 48", "result": 1, "unit": "µg/mL"},
      {"measurement": "MIC", "setting": "MRSA clinical isolates; Table S4, MRSA strain 49", "result": 1, "unit": "µg/mL"},
      {"measurement": "MIC", "setting": "MRSA clinical isolates; Table S4, MRSA strain 50", "result": 1, "unit": "µg/mL"},
      {"measurement": "MIC", "setting": "MRSA clinical isolates; Table S4, MRSA strain 51", "result": 1, "unit": "µg/mL"},
      {"measurement": "IC50", "setting": "[2]", "result": 22, "unit": "µg/mL"},
      {"measurement": "IC50", "setting": "[3]", "result": 19, "unit": "µg/mL"}
    ]}
  ]
}
